From patent US8921356B2, “Compositions comprising nicotinic agonists and methods of using same” (priority 2007, dated 2014)

Experiments:
[1] = tested on: rats; test: Nicotine-induced hypothermia in rats; type: in vivo, rat
Procedure: (§1) (ii) Animals—Young adult (240 g-290 g) male Sprague-Dawley rats (Charles River, USA or Harlan, Israel) were used in the experiments.
(iv) Determination of nicotine-induced hypothermia—Rats were placed individually in experimental cages kept at 25° C. and were allowed to rest for 1 h before drug injection. During this period, body temperature was measured at 15- or 30-min intervals in order to exclude the effect of handling on animal temperature. Body temperature was measured with a rectal thermistor probe (M.R.C, Israel, sensitivity 0.1° C.). The probe was lubricated with petroleum before being inserted into the rectum to a depth of 2 cm. The data are presented as changes in rectal temperature from the basal values. Basal values are those taken immediately before the drug injection (time 0).
Rats were divided into three treatment groups, each of 5 rats, as follows: 1. treatment with nicotine (2 mg/kg); 2. treatment with opipramol (20 mg/kg); 3. treatment with opipramol (20 mg/kg) together with nicotine (2 mg/kg). Rats were injected with nicotine twice on the first day (FIG. 3A, D-1, left panel) and three times on days 2 (FIG. 3A, D-2, middle panel) and 3 (FIG. 3A, D-3, right panel). […] Nicotine was injected with and without opipramol, and body temperature was measured at 30 min intervals. […] FIG. 3A: Each point is the Mean±S.E.M. of change in body temperature compared to the temperature measured at time 0 (before the first injection) for at least five rats. FIG. 3B depicts a bar histogram representing mean±S.E.M. of the maximum change in body temperature compared to the temperature measured just before the injection.
The body temperature (0 C) was measured 30 min post injection. FIG. 7 depicts the maximum decrease in body temperature after each injection.
Nicotine (2 mg/kg), lidocaine (15 mg/kg), and nicotine+lidocaine (2 mg/kg+15 mg/kg) were administered to rats 2× day for two days, following the above protocol.

[2] = tested on: BDNF mRNA; test: BDNF mRNA expression in rat cerebral cortex; type: in vivo
Procedure: Nicotine alone (0.5 mg/kg) or opipramol (10 mg/kg) or nicotine (0.5 mg/kg)+opipramol (10 mg/kg) were injected intraperitoneally (ip) to rats (5 per group) at intervals of 2 hours during a single day. The drugs were dissolved in saline and used in the same day. […] Animals were sacrificed 90 min after each injection and brain derived neurotrophic factor (BDNF) and β-actin mRNA were determined in homogenates of the cerebral cortex of each animal.
Homogenates of the cerebral cortex were prepared as follows: Rat brain tissues were sonicated for 15 sec and total RNA was obtained using the Trizol Reagent (Molecular Research Center, Cincinnati, Ohio, USA), according to the manufacturer's instructions. RNA concentrations were quantified by measuring the absorbances at 260 and 280 nm. RNA was reverse transcribed into cDNA during 45 min at 42° c. The cDNA products were diluted 1:40 for BDNF and 1:1000 for β-actin (a housekeeping gene for internal standard). In order to amplify gene specific sequences, PCR techniques were applied using ReadyMix PCR Master Mix (AB-genes, Surrey, UK) and specific primer sequences for BDNF and beta actin. The products were separated by electrophoresis on agarose and quantification of the bands was done by an image analyzer.

[3] = tested on: smooth muscle of a guinea pig ileum; test: Nicotine-induced smooth muscle contraction in the guinea pig ileum preparation
Procedure: The free end of a smooth muscle of a guinea pig ileum was attached to a force displacement transducer. Isometric tension of the smooth muscle was continuously monitored by outputting the preamplified transducer signal to a computer.
The ileum preparation was washed by physiological solution 10 min after the addition of nicotine and then nicotine at a final concentration of 25 μM was added again to the muscle preparation for additional 10 min (2nd stimulation; bar 3).

[4] = tested on: nAChR; test: Nicotine-induced 45Ca2+ uptake (calcium influx) in SK-N-SH human neuroblastoma cells; type: cell-based
Procedure: (i) Cells—SK-N-SH human neuroblastoma cell line was obtained from the American Type Culture Collection (ATTC).
SK-N-SH human neuroblastoma cells, known to express nAChR, were grown in Dulbecco/Vogt Modified Eagle's Minimal Essential Medium (DMEM) to confluency in a 24-well plate. DMEM containing 45Ca^2+ without any other addition (1) or with 50 μM nicotine (2) or with 50 μM nicotine+10 μM opipramol (3) was added to cells grown in 24-well plates and preincubated with medium alone for 15 minutes, then washed rapidly. Intra cellular radioactivity was determined for each condition. The same medium with nicotine was added also to cells that were preincubated for 15 minutes with either 50 μM nicotine alone (4) or with 50 μM nicotine+10 μM opipramol (5). 45Ca2+ uptake was determined after 10 min. Activation of the nicotinic receptors causes calcium influx so it is a measure of the nicotinic receptor activity.

[5] = tested on: rats; test: Elevated plus maze (EPM) anxiety test in rats; type: in vivo, rat
Description: as §1
(v) Elevated […] Maze (EPM)—The purpose of the EPM is to determine the anxiolytic effects of tested drugs. The time that the experimental animals spend in the open arm of the maze is an indication for the anxiolytic effect, the longer the time the higher the anxiolytic effect. The EPM is a wooden, cross-shaped device, consisting of four arms arranged in the shape of a plus sign. Two of the arms have no side or end walls (open-arms; 30×5×0.25 cm). The other two arms have side walls and end walls, but are open on top (closed arms; 30×5×15 cm). The maze is elevated to a height of 50 cm. The animals are kept in a relatively dark box before exposure to the maze in order to increase their exploratory behavior. The tests were done in a silent environment under dim light. The animals were carried to the laboratory and left there undisturbed for 1 h before the experiment.
This test is used to assess anxiety. Rats were randomly assigned into five groups each containing 5 animals and then tested in an Elevated Plus Maze (EPM). In the first (control) group, rats were injected with saline once a day; in the second group rats were injected with nicotine (0.5 mg/kg or 2 mg/kg) three times a day and were tested in the maze after the third injection; in the third group rats were injected with opipramol (10 mg/kg) three times a day and then were tested in the maze; in the fourth group, rats were injected with opipramol (10 mg/kg) or galantamine (5 mg/kg), and nicotine (2 mg/kg or 0.5 mg/kg) three times a day and were tested in the maze after the last injection. The behavioral response to nicotine in the EPM was assessed 30 min after the first injection, and then again 30 minutes after the third injection.

Structure (SMILES): CCN(CC)CC(=O)Nc1c(C)cccc1C [lidocaine]
- hypothermic effect of nicotine ([1]; lidocaine 15 mg/kg + nicotine 2 mg/kg, 2x day for two days): maintained the hypothermic effect of nicotine

Structure (SMILES): CN1CCC[C@H]1c1cccnc1 [nicotine, S-3-(1-methyl-2-pyrrolidinyl)pyridine]
- hypothermic effect ([1]; nicotine 2 mg/kg alone, 2x day for two days): loss of the hypothermic effect
- hypothermic effect (maximum decrease in body temperature) ([1]; nicotine 2 mg/kg alone, 3 injections 2 h apart): gradual decrease in the hypothermic effect
- magnitude of the decrease in body temperature ([1]; nicotine 2 mg/kg repeatedly injected for three consecutive days, P<0.05): became progressively smaller
- BDNF mRNA level (ratio to β-actin) ([2]; nicotine 0.5 mg/kg ip alone, repeated (third) injection): much smaller rise
- BDNF mRNA level (ratio to β-actin) ([2]; nicotine 0.5 mg/kg ip, first injection): increased
- muscle contraction ([3]; 1st stimulation, 25 μM nicotine alone): caused muscle contraction
- muscle contraction ([3]; 2nd stimulation with 25 μM nicotine after 1st stimulation with nicotine alone): did not induce muscle contraction
- calcium influx (45Ca2+ uptake) ([4]; first exposure to 50 μM nicotine, compared to basal uptake, SK-N-SH cells): caused an increase in calcium influx
- calcium influx (45Ca2+ uptake) ([4]; second exposure to 50 μM nicotine after 15 min preincubation with nicotine alone): considerably reduced
- anxiolytic effect (time in open arm) ([5]; nicotine alone, 0.5 mg/kg and 2 mg/kg, second injection): did not induce an anxiolytic effect
- time spent in the open arm (anxiolytic effect) ([5]; one injection of nicotine): significantly increased

Structure (SMILES): CN(C)CCCN1c2ccccc2CCc2ccc(Cl)cc21 [clomipramine]
- hypothermic effect of nicotine ([1]; clomipramine 30 mg/kg with nicotine 2 mg/kg, consecutive injections 2 h apart): no further reduction in the hypothermic effect
- hypothermic effect of nicotine ([1]; clomipramine 30 mg/kg with nicotine 2 mg/kg, first injection): inhibited to some extent the effect of nicotine

Structure (SMILES): OCCN1CCN(CCCN2c3ccccc3C=Cc3ccccc32)CC1 [opipramol]
- change in body temperature ([1]; opipramol 20 mg/kg alone): only a slight decrease in body temperature
- magnitude of the reduction in body temperature ([1]; opipramol 20 mg/kg together with nicotine 2 mg/kg, second and third day, after second and third injections, P<0.001): significantly larger than that induced by nicotine alone
- BDNF mRNA level (ratio to β-actin) ([2]; nicotine 0.5 mg/kg + opipramol 10 mg/kg ip, third injection): rising even above that which was observed with nicotine alone
- BDNF mRNA level (ratio to β-actin) ([2]; opipramol 10 mg/kg ip alone, third injection): no effect
- effect of nicotine (muscle contraction) relative to that induced by nicotine alone ([3]; 1st stimulation, 25 μM nicotine in the presence of 10 μM opipramol): about 50%
- muscle contraction response to nicotine ([3]; 2nd stimulation with 25 μM nicotine after 1st stimulation in the presence of opipramol): almost full response
- duration of the effect of nicotine (muscle contraction) ([3]; nicotine administered together with opipramol, until removal by washing, data not shown): maintained steady for one hour
- calcium uptake (45Ca2+) ([4]; first stimulation with 50 μM nicotine in the presence of 10 μM opipramol, compared to nicotine alone): only slightly smaller
- nAChR desensitization (45Ca2+ uptake at second nicotine stimulation) ([4]; second stimulation with 50 μM nicotine after 15 min preincubation with 50 μM nicotine + 10 μM test drug): remarkedly reduced
- anxiolytic effect (time in open arm) ([5]; nicotine 0.5 mg/kg together with opipramol 10 mg/kg or galantamine 5 mg/kg, second injection): the anxiolytic effect was seen in the second injection
- anxiolytic effect (time in open arm) ([5]; nicotine 2 mg/kg together with opipramol 10 mg/kg or galantamine 5 mg/kg): inhibited desensitization
